Like-named read-outs stand apart in the source and are kept apart here. Each block holds one molecule with its values, some of them ahead of it.
Legend:
A549 = test: in vitro screen against human tumor cell line A549 (lung), GI50; format: cell-based; conditions: read-out: GI50 A549
DU145 = test: in vitro screen against human tumor cell line DU-145 (prostate), GI50; format: cell-based; conditions: Homo sapiens, read-out: GI50 DU145
KB = test: in vitro screen against human tumor cell line KB (nasopharyngeal), GI50; format: cell-based; conditions: read-out: GI50 KB
KBvin = test: in vitro screen against KBvin cell line, GI50; format: cell-based; conditions: Homo sapiens
SKBR = test: in vitro screen against cancer cell line SKBR (breast), GI50; format: cell-based; conditions: Example 3, Table 1
[1] = test system: panel of cancer cell lines including A549 (lung), DU-145 (prostate), KB (nasopharyngeal), and HCT-8 (colon)
HCT-8 = test: in vitro screen against human tumor cell line HCT-8 (colon), GI50; format: cell-based; conditions: Homo sapiens, read-out: GI50 HCT-8
[2] = Homo sapiens, A549, Example 2, Table 3, 13-aza-cryptopleurines
[3] = DU-145, Example 2, Table 3, 13-aza-cryptopleurines
[4] = Homo sapiens, KB, Example 2, Table 3, 13-aza-cryptopleurines
[5] = Table 3, cells marked (KBvin) in the HCT-8 column
[6] = Homo sapiens, A549, Example 3, Table 1
[7] = Homo sapiens, KB, Example 3, Table 1
[8] = HCT-8, Example 2, Table 3, 13-aza-cryptopleurines
[9] = Homo sapiens, A549, Example 2, Table 2, 12-aza-antofines
[10] = DU-145, Example 2, Table 2, 12-aza-antofines
[11] = Homo sapiens, KB, Example 2, Table 2, 12-aza-antofines
[12] = HCT-8, Example 2, Table 2, 12-aza-antofines
[13] = Example 2, Table 4, 12-aza-cryptopleurines

SMILES: COc1ccc2c3c(c4cc(OC)c(OC)cc4c2c1)CC1CN(Cc2ccccc2)CCN1C3 (stereo in doubt) [Compound 8n, (R)-13-aza-13N-benzyl-cryptopleurine]
GI50 (A549; [2]): 16.4 µM | GI50 (DU145; [3]): 11.9 µM | GI50 (KB; [4]): 12.1 µM | GI50 (KBvin; [5]): 7.64 µM | melting point: 86 to 88 °C

SMILES: COc1ccc2c3c(c4cc(OC)c(OC)cc4c2c1)C[C@H]1C[C@H](O)CCN1C3 [Compound 13b, (13R,14aS)-13-hydroxyl-cryptopleurine]
GI50 (A549; [6]): 0.022 µM | GI50 (DU145; DU-145, Example 3, Table 1): 0.011 µM | GI50 (KB; [7]): 0.023 µM | GI50 (KBvin; KBVIN, Example 3, Table 1): 0.025 µM | GI50 (SKBR): 0.072 µM | range of cytotoxicity / anticancer activity in words [1]: low nM range

melting point: 93 to 95 °C
SMILES: COc1ccc2c3c(c4cc(OC)c(OC)cc4c2c1)C[C@H]1CN(CC(C)C)CN1C3

melting point: 113 to 115 °C
SMILES: COc1ccc2c3c(c4cc(OC)c(OC)cc4c2c1)C[C@H]1CN(Cc2ccccc2)CN1C3 [3a]

SMILES: COc1ccc2c3c(c4cc(OC)c(OC)cc4c2c1)C[C@H]1CCC(=O)CN1C3 [Compound 18, (R)-12-oxo-cryptopleurine]
GI50 (A549; [6]): 0.91 µM | GI50 (DU145; DU-145, Example 3, Table 1): 1.7 µM | GI50 (KB; [7]): 0.734 µM | GI50 (KBvin; KBVIN, Example 3, Table 1): 1.48 µM | GI50 (SKBR): 3.34 µM

SMILES: COc1ccc2c3c(c4cc(OC)c(OC)cc4c2c1)CC1CN(CC(C)C)CCN1C3 (stereo in doubt) [Compound 8m, (R)-13-aza-13N-isobutyl-cryptopleurine]
GI50 (A549; [2]): 12.9 µM | GI50 (DU145; [3]): 12.2 µM | GI50 (KB; [4]): 11.2 µM | GI50 (KBvin; [5]): 9.96 µM | melting point: 175 to 177 °C

SMILES: COc1ccc2c3c(c4cc(OC)c(OC)cc4c2c1)C[C@H]1CN(C2CC2)CCN1C3 [Compound 8h, (S)-13-aza-13N-cyclopropyl-cryptopleurine]
GI50 (A549; [2]): 23.2 µM | GI50 (DU145; [3]): 17.9 µM | GI50 (KB; [4]): 23.4 µM | GI50 (HCT-8; [8]): 13 µM | melting point: 115 to 117 °C

SMILES: CCCN1C[C@@H]2Cc3c(c4ccc(OC)cc4c4cc(OC)c(OC)cc34)CN2C1 [Compound 3c, (S)-12-aza-12N-propyl-antofine]
GI50 (A549; [9]): 3.94 µM | GI50 (DU145; [10]): 7.38 µM | GI50 (KB; [11]): 6.64 µM | GI50 (HCT-8; [12]): 2.71 µM | melting point: 155 to 157 °C

SMILES: COC(=O)CN1CCN2Cc3c(c4cc(OC)c(OC)cc4c4cc(OC)ccc34)C[C@H]2C1 [Compound 8f, (S)-13-aza-13N-methoxycarbonylmethyl-cryptopleurine]
GI50 (A549; [2]): 14.7 µM | GI50 (DU145; [3]): 20.8 µM | GI50 (KB; [4]): 14.7 µM | GI50 (HCT-8; [8]): 14 µM | melting point: 111 to 113 °C

SMILES: COc1ccc2c3c(c4cc(OC)c(OC)cc4c2c1)C[C@H]1CN(CCO)CN1C3 [Compound 3e, (S)-12-aza-12N-hydroxylethyl-antofine]
GI50 (A549; [9]): 4.41 µM | GI50 (DU145; [10]): 6.36 µM | GI50 (KB; [11]): 7.83 µM | GI50 (HCT-8; [12]): 10.8 µM | melting point: 210 to 212 °C

SMILES: COc1ccc2c3c(c4cc(OC)c(OC)cc4c2c1)C[C@H]1C[C@H](O)CN1C3 [Compound 9b, (12S,13aS)-12-hydroxyl-antofine]
GI50 (A549; [6]): 2.27 µM | GI50 (DU145; DU-145, Example 3, Table 1): 1.8 µM | GI50 (KB; [7]): 1.81 µM | GI50 (KBvin; KBVIN, Example 3, Table 1): 2.21 µM | range of cytotoxicity / anticancer activity in words [1]: middle nM to low μM range

SMILES: COc1ccc2c3c(c4cc(OC)c(OC)cc4c2c1)C[C@H]1CCN(CC(C)C)CN1C3 [Compound 11c, (S)-12-aza-12N-isobutyl-cryptopleurine]
GI50 (A549; [13]): 1.52 µM | GI50 (DU145; DU-145, Example 2, Table 4, 12-aza-cryptopleurines): 2.3 µM | GI50 (KB; [13]): 5.06 µM | GI50 (HCT-8; HCT-8, Example 2, Table 4, 12-aza-cryptopleurines): 1.36 µM | melting point: 177 to 179 °C

SMILES: CCN1CCN2Cc3c(c4cc(OC)c(OC)cc4c4cc(OC)ccc34)C[C@H]2C1 [Compound 8b, (S)-13-aza-13N-ethyl-cryptopleurine]
GI50 (A549; [2]): 7.13 µM | GI50 (DU145; [3]): 10.5 µM | GI50 (KB; [4]): 8.24 µM | GI50 (HCT-8; [8]): 9.45 µM | melting point: 83 to 85 °C

SMILES: COc1ccc2c3c(c4cc(OC)c(OC)cc4c2c1)C[C@H]1CN(C(=O)c2ccccc2)CCN1C3 [Compound 8i, (S)-13-aza-13N-benzoyl-cryptopleurine]
GI50 (A549; [2]): 15 µM | GI50 (DU145; [3]): 15.7 µM | GI50 (KB; [4]): 20.1 µM | GI50 (HCT-8; [8]): 18.1 µM | melting point: 203 °C (dec.)

Reference: patent publication US9216977B2 (The University of North Carolina at Chapel Hill, priority 2009, dated 2015)
